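Dose response: 5 concentrations. Exposure: 48 h. Format: 96-well plates. Endpoint: linear interpolation; highest concentration if not reached. Abbreviation: GI50, concentration required for 50% inhibition of growth.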 The source made the active and inactive calls. No stated cut-off is given here; in the data, active = GI50 up to about 1.1 µM and inactive = higher. Positions of bridges follow the written chain, without caps; N, C: chain ends. Non-standard residues stand in square brackets, D forms with d. Residues, ends and D or L forms follow the SMILES beside them. Aib = CC(C)(N)C(=O)O; βAla = NCCC(=O)O
What was measured:
Assay in all cases: NCI-60 cell line screen, 48 h
Hs-578T = system: Hs-578T
MDA-N = system: MDA-N
M19-MEL = system: M19-MEL
DLD-1 = system: DLD-1
LXFL 529 = system: LXFL 529
DMS-114 = system: DMS-114
DMS-273 = system: DMS-273
XF498 = system: XF498

With `C=CCc1cccc2cc(C(=O)NCc3ccccc3)c(=N)oc12` the GI50 (Hs-578T) was 18.8 µM (inactive) and the GI50 (MDA-N) was 41.4 µM (inactive).
`O=C(/C=N/O)Nc1ccc(Cl)c(I)c1` was tested, and the GI50 (M19-MEL) was 22.4 µM (inactive), the GI50 (DLD-1) was 27.1 µM (inactive) and the GI50 (LXFL 529) was 12.9 µM (inactive). For the same compound, the GI50 (DMS-114) was 16.6 µM (inactive), the GI50 (DMS-273) was 18.4 µM (inactive) and the GI50 (XF498) was 21.6 µM (inactive).
With `COC(=O)C1=CC(O)CCC1c1ccc(OC)cc1` (stereo not drawn) the GI50 (M19-MEL) was > 100 µM (inactive), the GI50 (DLD-1) was > 100 µM (inactive) and the GI50 (LXFL 529) was > 100 µM (inactive). The GI50 (DMS-114) was > 100 µM (inactive) and the GI50 (DMS-273) was > 100 µM (inactive).
`CCOC(=O)c1nc2c3c(ncn2n1)Oc1c(c(-c2ccccc2)nn1-c1ccccc1)C3c1ccc(OC)c(OC)c1` (stereo not drawn) was tested, and the GI50 (Hs-578T) was 12.4 µM (inactive) and the GI50 (MDA-N) was > 100 µM (inactive).
For `CCOP(=O)(OCC)/C(=C/n1c(=S)[nH]c2ccccc21)C(=O)OC`, the GI50 (Hs-578T) was 95.1 µM (inactive) and the GI50 (MDA-N) was > 100 µM (inactive).
For `OC1=CN=C(C2CC2)Oc2ccccc21`, the GI50 (M19-MEL) was > 100 µM (inactive), the GI50 (DLD-1) was > 100 µM (inactive) and the GI50 (LXFL 529) was > 100 µM (inactive). For the same compound, the GI50 (DMS-114) was 41 µM (inactive) and the GI50 (DMS-273) was > 100 µM (inactive).
For `O=S(=O)(CCC[C@H]1[C@@H](CCOCc2ccccc2)C2CCCN1O2)c1ccccc1` (stereo partly drawn), the GI50 (Hs-578T) was > 100 µM (inactive) and the GI50 (MDA-N) was > 100 µM (inactive).
With `C/C(=N/c1[nH]c(=O)cc2c1C(=O)CC2)N(C)C` the GI50 (Hs-578T) was > 200 µM (inactive) and the GI50 (MDA-N) was > 200 µM (inactive).
For `COc1ccc(CCNC2=CC(=O)c3ncccc3C2=O)cc1OC`, the GI50 (Hs-578T) was 1.19 µM (inactive) and the GI50 (MDA-N) was 1.18 µM (inactive).
In the case of `COc1ccc([C@H]2CC(=O)C[C@H](c3ccc(OC)cc3)C23C(=O)c2ccccc2C3=O)cc1`, the GI50 (Hs-578T) is reported as 4.78 µM (inactive) and the GI50 (MDA-N) is reported as 2.07 µM (inactive).
For `COC(=O)c1ccccc1C1CN=NC12Cc1cccc(C)c1C2=O` (stereo not drawn), the GI50 (Hs-578T) was 40.4 µM (inactive) and the GI50 (MDA-N) was 46.7 µM (inactive).
For `COc1ccc(Nc2nc(N)c(C(=O)c3ccco3)s2)cc1`, the GI50 (Hs-578T) was 22.4 µM (inactive) and the GI50 (MDA-N) was 4.11 µM (inactive).
In the case of `COc1ccc2c(c1)C1Oc3ccccc3CC1(O)CO2` (stereo not drawn), the GI50 (MDA-N) is reported as > 100 µM (inactive).
For `CS/C(=N\S(=O)(=O)c1ccc(Cl)cc1)NCCCCN/C(=N/S(=O)(=O)c1ccc(Cl)cc1)SC`, the GI50 (MDA-N) was > 100 µM (inactive).
For `Cc1ccc(NC(=O)/C(Cc2nc3ccc([N+](=O)[O-])cc3nc2O)=N\NC(=O)C[n+]2ccccc2)c(C)c1`, the GI50 (Hs-578T) was 86.1 µM (inactive) and the GI50 (MDA-N) was > 100 µM (inactive).
`CC1=NN2CCC(=O)N=C2S1` was tested, and the GI50 (Hs-578T) was > 100 µM (inactive) and the GI50 (MDA-N) was > 100 µM (inactive).
In the case of `CN(C)CC(C)(C)C(/C=C/c1ccccc1)=N\Nc1ccccc1`, the GI50 (M19-MEL) is reported as 10 µM (inactive), the GI50 (DLD-1) is reported as 0.199 µM (active) and the GI50 (LXFL 529) is reported as 0.197 µM (active). For the same compound, the GI50 (DMS-114) was 4.25 µM (inactive) and the GI50 (DMS-273) was 0.335 µM (active).
`CCOC(=O)c1cccc(/N=N/c2ncc(/C=C/C(=O)OC)[nH]2)c1` was tested, and the GI50 (Hs-578T) was 39.9 µM (inactive) and the GI50 (MDA-N) was 15.7 µM (inactive).
For `Fc1ccc(/N=C2C=C/C(=N\c3ccc(F)cc3)c3ccccc3\2)cc1`, the GI50 (M19-MEL) was > 100 µM (inactive), the GI50 (DLD-1) was > 100 µM (inactive) and the GI50 (LXFL 529) was > 100 µM (inactive). The GI50 (DMS-273) was > 100 µM (inactive) and the GI50 (XF498) was > 100 µM (inactive).
In the case of `O=C(O)C(Cc1ccccc1)N1C(=O)N/C(=C\c2ccc(F)cc2)C1=O` (stereo not drawn), the GI50 (M19-MEL) is reported as > 100 µM (inactive), the GI50 (DLD-1) is reported as > 100 µM (inactive) and the GI50 (LXFL 529) is reported as > 100 µM (inactive). The GI50 (DMS-273) was > 100 µM (inactive).
For `CC(C)(C)C1CCC2c3c([nH]c4ccccc34)C3C(=O)N(c4ccccc4[N+](=O)[O-])C(=O)C3C2C1` (stereo not drawn), the GI50 (Hs-578T) was 14.4 µM (inactive) and the GI50 (MDA-N) was 13.2 µM (inactive).
For `COC(=O)C(=O)CC(=O)c1cccc(OC)c1`, the GI50 (Hs-578T) was > 100 µM (inactive) and the GI50 (MDA-N) was 5.66 µM (inactive).
In the case of `CS/C(=N\C#N)NC1CC(n2cc(C)c(=O)[nH]c2=O)OC1CO` (stereo not drawn), the GI50 (MDA-N) is reported as > 100 µM (inactive).
In the case of `O=C([O-])C(O)C(O)C(O)C(O)C(=O)O.[K+]` (stereo not drawn), the GI50 (MDA-N) is reported as > 100 µM (inactive).
For `O=S(=O)(O)c1ccc([Se][Se]c2ccc(S(=O)(=O)O)cc2)cc1`, the GI50 (M19-MEL) was > 100 µM (inactive), the GI50 (DLD-1) was > 100 µM (inactive) and the GI50 (LXFL 529) was 51.2 µM (inactive). For the same compound, the GI50 (DMS-114) was > 100 µM (inactive), the GI50 (DMS-273) was 76.7 µM (inactive) and the GI50 (XF498) was > 100 µM (inactive).
In the case of `C[N+]1(C)C(c2ccccc2)C(=O)O[B@-]1(F)c1ccccc1` (stereo partly drawn), the GI50 (MDA-N) is reported as > 100 µM (inactive).
In the case of `CC(C)[C@@H]1NC(=O)[C@@H]2N=C(O[C@H]2C)[C@H](C(C)C)NC(=O)C2N=C1O[C@H]2C`, the GI50 (Hs-578T) is reported as > 100 µM (inactive) and the GI50 (MDA-N) is reported as > 100 µM (inactive).
In the case of `COC(=O)C1C2C=CC(C2)N1[C@@H](C)c1ccccc1` (stereo partly drawn), the GI50 (M19-MEL) is reported as > 100 µM (inactive), the GI50 (DLD-1) is reported as > 100 µM (inactive) and the GI50 (LXFL 529) is reported as > 100 µM (inactive). For the same compound, the GI50 (DMS-273) was > 100 µM (inactive).
In the case of `COc1cc(/C=C2/C(=O)N(C(=O)c3ccccc3O)N=C2C)ccc1O`, the GI50 (Hs-578T) is reported as 0.272 µM (active), the GI50 (MDA-N) is reported as 0.385 µM (active) and the GI50 (M19-MEL) is reported as 0.653 µM (active). For the same compound, the GI50 (DLD-1) was 0.0603 µM (active), the GI50 (LXFL 529) was 0.0515 µM (active) and the GI50 (DMS-114) was 0.171 µM (active). For the same compound, the GI50 (XF498) was 0.0723 µM (active).
With `O=C1/C(=C/c2ccc([N+](=O)[O-])cc2)CNC/C1=C\c1ccc([N+](=O)[O-])cc1` the GI50 (Hs-578T) was 4.36 µM (inactive) and the GI50 (MDA-N) was 6.27 µM (inactive).
In the case of `CC1(C)NC(=O)C(NC(=O)C(N)CC(=O)O)CCCCNC(=O)CCNC1=O` (stereo not drawn) (H-DK[Aib][βAla]; lactam 2-C; configuration not given here), the GI50 (Hs-578T) is reported as > 100 µM (inactive) and the GI50 (MDA-N) is reported as > 100 µM (inactive).
In the case of `C[C@@H]1C[C@@H]2OC(=O)[C@]3(C)[C@H]2[C@@H](OC3(C)O)[C@]2(C)C(=O)C=C[C@@H]12` (stereo partly drawn) [TENULIN], the GI50 (Hs-578T) is reported as 51.6 µM (inactive) and the GI50 (MDA-N) is reported as 17.5 µM (inactive).
